Legend:
Type in all cases: cell-based
PYR1 K59R A160C = target: T1, PYR1 K59R A160C (Arabidopsis thaliana, UniProt O49686, A160C/K59R); test: Y2H Pocket Library Screen (HAB1, X-gal)
T1 construct: expressed in transfected cells; host or cells: S. cerevisiae Y190
Procedure: (§1) The set of 475 mutant plasmids were individually transformed into the Y190 yeast two hybrid reporter strain co-transformed with pACT-HAB1, as previously described (Park et al., 2009). The yeast strains generated were arrayed into 96-well plates yielding what we refer to as the “pocket library”. The pocket library strains were spotted onto agar plates containing selective synthetic dextrose (minus Leu & Trp) medium that was supplemented with a single test compound at 100 μM. The pocket library strains were separately tested for responsiveness to the following compounds: dichlobenil, benzothiadiazole, mandipropamid, fludioxonil, and benoxacor. After incubating test plates at 30° C. for two days, colonies were chloroform lysed and stained to reveal β-galactosidase expression levels, using previously described methods (Park et al., 2009). Mutants displaying responsiveness to the test compound, if present, were identified by virtue of X-gal staining and then subjected to subsequent optimization efforts. Using this approach we identified mutations that conferred detectable sensitivity to the compounds tested (see entries labeled “Pocket Library Screens” in Table 1).

PYR1 K59R E141Y = target: T2, PYR1 K59R E141Y (Arabidopsis thaliana, UniProt O49686, E141Y/K59R); test: Y2H Pocket Library Screen (HAB1, X-gal)
T2 construct: expressed in transfected cells; host or cells: S. cerevisiae Y190 two-hybrid reporter strain
Procedure: as §1

PYR1 K59R E94A = target: T3, PYR1 K59R E94A (Arabidopsis thaliana, UniProt O49686, E94A/K59R); test: Y2H Pocket Library Screen (HAB1, X-gal)
T3 construct: expressed in transfected cells; host or cells: S. cerevisiae Y190 yeast two-hybrid reporter strain
Procedure: as §1

PYR1 K59R E94D = target: T4, PYR1 K59R E94D (Arabidopsis thaliana, UniProt O49686, E94D/K59R); test: Y2H Pocket Library Screen (HAB1, X-gal)
T4 construct: expressed in transfected cells; host or cells: S. cerevisiae Y190 yeast two-hybrid reporter strain
Procedure: as §1

PYR1 K59R E94S = target: T5, PYR1 K59R E94S (Arabidopsis thaliana, UniProt O49686, E94S/K59R); test: Y2H Pocket Library Screen (HAB1, X-gal)
T5 construct: expressed in transfected cells; host or cells: S. cerevisiae Y190 yeast two-hybrid reporter strain
Procedure: as §1

PYR1 K59R F108L = target: T6, PYR1 K59R F108L (Arabidopsis thaliana, UniProt O49686, F108L/K59R); test: Y2H Pocket Library Screen (HAB1, X-gal)
T6 construct: expressed in transfected cells; host or cells: S. cerevisiae Y190 yeast two-hybrid reporter strain
Procedure: as §1

PYR1 K59R F159A = target: T7, PYR1 K59R F159A (Arabidopsis thaliana, UniProt O49686, F159A/K59R); test: Y2H Pocket Library Screen (HAB1, X-gal)
T7 construct: expressed in transfected cells; host or cells: S. cerevisiae Y190 two-hybrid reporter strain
Procedure: as §1

PYR1 K59R F159T = target: T8, PYR1 K59R F159T (Arabidopsis thaliana, UniProt O49686, F159T/K59R); test: Y2H Pocket Library Screen (HAB1, X-gal)
T8 construct: expressed in transfected cells; host or cells: S. cerevisiae Y190
Procedure: as §1

PYR1 K59R F159V = target: T9, PYR1 K59R F159V (Arabidopsis thaliana, UniProt O49686, F159V/K59R); test: Y2H Pocket Library Screen (HAB1, X-gal)
T9 construct: expressed in transfected cells; host or cells: S. cerevisiae Y190
Procedure: as §1

PYR1 K59R L87F = target: T10, PYR1 K59R L87F (Arabidopsis thaliana, UniProt O49686, K59R/L87F); test: Y2H Pocket Library Screen (HAB1, X-gal)
T10 construct: expressed in transfected cells; host or cells: S. cerevisiae Y190 yeast two-hybrid reporter strain
Procedure: as §1

PYR1 K59R L87P = target: T11, PYR1 K59R L87P (Arabidopsis thaliana, UniProt O49686, K59R/L87P); test: Y2H Pocket Library Screen (HAB1, X-gal)
T11 construct: expressed in transfected cells; host or cells: S. cerevisiae Y190 yeast two-hybrid reporter strain
Procedure: as §1

PYR1 K59R M158C = target: T12, PYR1 K59R M158C (Arabidopsis thaliana, UniProt O49686, K59R/M158C); test: Y2H Pocket Library Screen (HAB1, X-gal)
T12 construct: expressed in transfected cells; host or cells: S. cerevisiae Y190 two-hybrid reporter strain
Procedure: as §1

PYR1 K59R M158I = target: T13, PYR1 K59R M158I (Arabidopsis thaliana, UniProt O49686, K59R/M158I); test: Y2H Pocket Library Screen (HAB1, X-gal)
T13 construct: expressed in transfected cells; host or cells: S. cerevisiae Y190 two-hybrid reporter strain
Procedure: as §1

PYR1 K59R M158T = target: T14, PYR1 K59R M158T (Arabidopsis thaliana, UniProt O49686, K59R/M158T); test: Y2H Pocket Library Screen (HAB1, X-gal)
T14 construct: expressed in transfected cells; host or cells: S. cerevisiae Y190 two-hybrid reporter strain
Procedure: as §1

PYR1 K59R M158V = target: T15, PYR1 K59R M158V (Arabidopsis thaliana, UniProt O49686, K59R/M158V); test: Y2H Pocket Library Screen (HAB1, X-gal)
T15 construct: expressed in transfected cells; host or cells: S. cerevisiae Y190 two-hybrid reporter strain
Procedure: as §1

PYR1 K59R N167C = target: T16, PYR1 K59R N167C (Arabidopsis thaliana, UniProt O49686, K59R/N167C); test: Y2H Pocket Library Screen (HAB1, X-gal)
T16 construct: expressed in transfected cells; host or cells: S. cerevisiae Y190 two-hybrid reporter strain
Procedure: as §1

PYR1 K59R N167H = target: T17, PYR1 K59R N167H (Arabidopsis thaliana, UniProt O49686, K59R/N167H); test: Y2H Pocket Library Screen (HAB1, X-gal)
T17 construct: expressed in transfected cells; host or cells: S. cerevisiae Y190 two-hybrid reporter strain
Procedure: as §1

PYR1 K59R N167V = target: T18, PYR1 K59R N167V (Arabidopsis thaliana, UniProt O49686, K59R/N167V); test: Y2H Pocket Library Screen (HAB1, X-gal)
T18 construct: expressed in transfected cells; host or cells: S. cerevisiae Y190 two-hybrid reporter strain
Procedure: as §1

PYR1 K59R S92F = target: T19, PYR1 K59R S92F (Arabidopsis thaliana, UniProt O49686, K59R/S92F); test: Y2H Pocket Library Screen (HAB1, X-gal)
T19 construct: expressed in transfected cells; host or cells: S. cerevisiae Y190 yeast two-hybrid reporter strain
Procedure: as §1

PYR1 K59R T162W = target: T20, PYR1 K59R T162W (Arabidopsis thaliana, UniProt O49686, K59R/T162W); test: Y2H Pocket Library Screen (HAB1, X-gal)
T20 construct: expressed in transfected cells; host or cells: S. cerevisiae Y190
Procedure: as §1

PYR1 K59R V164K = target: T21, PYR1 K59R V164K (Arabidopsis thaliana, UniProt O49686, K59R/V164K); test: Y2H Pocket Library Screen (HAB1, X-gal)
T21 construct: expressed in transfected cells; host or cells: S. cerevisiae Y190
Procedure: as §1

PYR1 K59R V81I = target: T22, PYR1 K59R V81I (Arabidopsis thaliana, UniProt O49686, K59R/V81I); test: Y2H Pocket Library Screen (HAB1, X-gal)
T22 construct: expressed in transfected cells; host or cells: S. cerevisiae Y190 yeast two-hybrid reporter strain
Procedure: as §1

PYR1 K59R V81Y = target: T23, PYR1 K59R V81Y (Arabidopsis thaliana, UniProt O49686, K59R/V81Y); test: Y2H Pocket Library Screen (HAB1, X-gal)
T23 construct: expressed in transfected cells; host or cells: S. cerevisiae Y190 yeast two-hybrid reporter strain
Procedure: as §1

PYR1 K59R V83L = target: T24, PYR1 K59R V83L (Arabidopsis thaliana, UniProt O49686, K59R/V83L); test: Y2H Pocket Library Screen (HAB1, X-gal)
T24 construct: expressed in transfected cells; host or cells: S. cerevisiae Y190 yeast two-hybrid reporter strain
Procedure: as §1

PYR1 K59R Y120A = target: T25, PYR1 K59R Y120A (Arabidopsis thaliana, UniProt O49686, K59R/Y120A); test: Y2H Pocket Library Screen (HAB1, X-gal)
T25 construct: expressed in transfected cells; host or cells: S. cerevisiae Y190 two-hybrid reporter strain
Procedure: as §1

PYR1 K59R Y120F = target: T26, PYR1 K59R Y120F (Arabidopsis thaliana, UniProt O49686, K59R/Y120F); test: Y2H Pocket Library Screen (HAB1, X-gal)
T26 construct: expressed in transfected cells; host or cells: S. cerevisiae Y190 two-hybrid reporter strain
Procedure: as §1

PYR1 K59R Y120G = target: T27, PYR1 K59R Y120G (Arabidopsis thaliana, UniProt O49686, K59R/Y120G); test: Y2H Pocket Library Screen (HAB1, X-gal)
T27 construct: expressed in transfected cells; host or cells: S. cerevisiae Y190 two-hybrid reporter strain
Procedure: as §1

PYR1 K59R Y120M = target: T28, PYR1 K59R Y120M (Arabidopsis thaliana, UniProt O49686, K59R/Y120M); test: Y2H Pocket Library Screen (HAB1, X-gal)
T28 construct: expressed in transfected cells; host or cells: S. cerevisiae Y190 two-hybrid reporter strain
Procedure: as §1

PYR1 K59R E94A N167C = target: T29, PYR1 K59R E94A N167C (Arabidopsis thaliana, UniProt O49686, E94A/K59R/N167C); test: Y2H Combinatorial Mutagenesis Screen I (HAB1, X-gal)
T29 construct: expressed in transfected cells; host or cells: S. cerevisiae Y190 two-hybrid reporter strain
Source text: (§2) This screening approach yielded mutants at ligand contacting residues that alter sensitivity to specific ligands. We reasoned that receptor sensitivity could be improved by systematically constructing combinations of the best mutant variants identified in the first round of screening. To test this, we constructed mutant combinations using the strongest mutations identified for mandipropamid, benzothiadiazole, benoxacor or fludioxonil sensitivity. The mutations selected for combinatorial mutagenesis are listed in bold type in Table 1; The mutant combinations were constructed using the QuickChange Lightning Multi Site-Directed PCR Mutagenesis kit (Agilent, USA) using pBD-PYR1^K59R template DNA and mutagenic primers, essentially as previously described (Mosquna et al., 2011). The mutant combinations were sequence validated, introduced into the pACT-HAB1 Y190 reporter strain and then tested for responsiveness to a range of compound concentrations (100, 50, 25, 10, 1, 0.2, 0.1 or 0 μM each test compound). These efforts yielded double mutant receptor variants with improved sensitivity for the 4 compound/receptor pairs examined (see entries labeled “Combinatorial Mutagenesis Screen I” in Table 1).

PYR1 K59R E94A Y120A = target: T30, PYR1 K59R E94A Y120A (Arabidopsis thaliana, UniProt O49686, E94A/K59R/Y120A); test: as above
T30 construct: expressed in transfected cells; host or cells: S. cerevisiae Y190 two-hybrid reporter strain
Source text: as §2

PYR1 K59R Y120A E141Y = target: T31, PYR1 K59R Y120A E141Y (Arabidopsis thaliana, UniProt O49686, E141Y/K59R/Y120A); test: as above
T31 construct: expressed in transfected cells; host or cells: S. cerevisiae Y190 two-hybrid reporter strain
Source text: as §2

PYR1 K59R Y120A N167C = target: T32, PYR1 K59R Y120A N167C (Arabidopsis thaliana, UniProt O49686, K59R/N167C/Y120A); test: as above
T32 construct: expressed in transfected cells; host or cells: S. cerevisiae Y190 two-hybrid reporter strain
Source text: as §2

T10 sequence (O49686 whole entry K59R/L87F): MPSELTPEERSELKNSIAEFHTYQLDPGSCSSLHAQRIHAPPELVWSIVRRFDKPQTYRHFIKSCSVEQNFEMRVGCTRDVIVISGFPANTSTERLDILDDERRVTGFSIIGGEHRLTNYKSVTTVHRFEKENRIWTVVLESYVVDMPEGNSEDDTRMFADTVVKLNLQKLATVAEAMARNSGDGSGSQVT
T10 sequence (Q9CAJ0 23-511, further chain): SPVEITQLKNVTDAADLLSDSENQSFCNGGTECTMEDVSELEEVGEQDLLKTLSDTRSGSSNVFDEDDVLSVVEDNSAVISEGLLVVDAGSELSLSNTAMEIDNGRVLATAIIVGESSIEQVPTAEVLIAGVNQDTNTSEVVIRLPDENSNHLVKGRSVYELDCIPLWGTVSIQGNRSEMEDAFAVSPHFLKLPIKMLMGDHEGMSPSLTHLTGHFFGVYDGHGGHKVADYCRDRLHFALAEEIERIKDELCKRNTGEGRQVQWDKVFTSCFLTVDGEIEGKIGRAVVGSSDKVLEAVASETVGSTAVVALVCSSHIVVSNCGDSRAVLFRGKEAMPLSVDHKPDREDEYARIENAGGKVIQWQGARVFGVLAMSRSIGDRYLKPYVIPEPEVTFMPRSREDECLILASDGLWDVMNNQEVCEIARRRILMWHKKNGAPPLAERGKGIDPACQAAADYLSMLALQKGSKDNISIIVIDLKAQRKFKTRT
T4 sequence (O49686 whole entry K59R/E94D): as the sequence (O49686 whole entry K59R/L87F) above, with F87L, E94D counted along it
T4 sequence (Q9CAJ0 23-511 partner): as the sequence (Q9CAJ0 23-511, further chain) above
T17 sequence (O49686 whole entry K59R/N167H): as the sequence (O49686 whole entry K59R/L87F) above, with F87L, N167H counted along it
T17 sequence (Q9CAJ0 23-511 partner): as the sequence (Q9CAJ0 23-511, further chain) above
T18 sequence (O49686 whole entry K59R/N167V): as the sequence (O49686 whole entry K59R/L87F) above, with F87L, N167V counted along it
T18 sequence (Q9CAJ0 23-511 partner): as the sequence (Q9CAJ0 23-511, further chain) above
T1 sequence (O49686 whole entry K59R/A160C): as the sequence (O49686 whole entry K59R/L87F) above, with F87L, A160C counted along it
T1 sequence (Q9CAJ0 23-511 partner): as the sequence (Q9CAJ0 23-511, further chain) above
T20 sequence (O49686 whole entry K59R/T162W): as the sequence (O49686 whole entry K59R/L87F) above, with F87L, T162W counted along it
T20 sequence (Q9CAJ0 23-511, further chain): as the sequence (Q9CAJ0 23-511, further chain) above
T5 sequence (O49686 whole entry K59R/E94S): as the sequence (O49686 whole entry K59R/L87F) above, with F87L, E94S counted along it
T5 sequence (Q9CAJ0 23-511 partner): as the sequence (Q9CAJ0 23-511, further chain) above

## N#Cc1c[nH]cc1-c1cccc2c1OC(F)(F)O2 [Fludioxonil, fludioxonil]
PYR1 K59R A160C
  Threshold: 100 µM
PYR1 K59R E141Y
  Threshold: 100 µM
PYR1 K59R E94A
  Threshold: 1 µM
PYR1 K59R E94D
  Threshold: 100 µM
PYR1 K59R E94S
  Threshold: 100 µM
PYR1 K59R F108L
  Threshold: 100 µM
PYR1 K59R F159A
  Threshold: 100 µM
PYR1 K59R F159T
  Threshold: 100 µM
PYR1 K59R F159V
  Threshold: 100 µM
PYR1 K59R L87F
  Threshold: 100 µM
PYR1 K59R L87P
  Threshold: 100 µM
PYR1 K59R M158C
  Threshold: 100 µM
PYR1 K59R M158I
  Threshold: 100 µM
PYR1 K59R M158T
  Threshold: 100 µM
PYR1 K59R M158V
  Threshold: 100 µM
PYR1 K59R N167C
  Threshold: 100 µM
PYR1 K59R N167H
  Threshold: 100 µM
PYR1 K59R N167V
  Threshold: 100 µM
PYR1 K59R S92F
  Threshold: 100 µM
PYR1 K59R T162W
  Threshold: 100 µM
PYR1 K59R V164K
  Threshold: 100 µM
PYR1 K59R V81I
  Threshold: 100 µM
PYR1 K59R V81Y
  Threshold: 100 µM
PYR1 K59R V83L
  Threshold: 100 µM
PYR1 K59R Y120A
  Threshold: 100 µM
PYR1 K59R Y120F
  Threshold: 100 µM
PYR1 K59R Y120G
  Threshold: 100 µM
PYR1 K59R Y120M
  Threshold: 100 µM
PYR1 K59R E94A N167C
  Threshold: 10 µM
PYR1 K59R E94A Y120A
  Threshold: 10 µM
PYR1 K59R Y120A E141Y
  Threshold: 10 µM
PYR1 K59R Y120A N167C
  Threshold: 10 µM

Source: patent US9738902B2, “Modified PYR/PYL receptors activated by ligands” (priority 2013, dated 2017)
